pIC50: −log10 of the molar value.
Legend:
Type in all cases: cell-based
hROMK = hROMK (Homo sapiens (Human), UniProt P48048); assay: ROMK Manual Patch Clamp Assay; settings: whole-cell manual patch clamp, hROMK expressing cells; read-out: hROMK EP IC50
Description: ROMK Manual Patch Clamp Assay
Cell culture conditions: Cells were maintained in conditions similar to those for Thallium flux assay. hROMK channel expression was induced by adding 0.6 μg/ml of Doxycycline 16-24 hrs prior to the experiments. On the day of experiment, the cells were dissociated using Versene, resuspended in growth media and plated onto coverslips 15 minutes prior to use.
Electrophysiology: The coverslip plated with cells was placed in the experiment chamber perfused with bath solution composed of (in mM): 135 NaCl, 5 KCl, 2 CaCl2, 1 MgCl2, 10 HEPES, 5 Glucose (pH 7.4). Patch pipettes with resistance between 2-5 Megaohms, when filled with a solution containing (in mM): 135 KCl, 1 EGTA, 1 MgCl2, 10 HEPES, 2 Na2ATP (pH 7.3), were used to form gigaseals. The cells were voltage clamped at −75 mV in whole-cell configuration using an Axopatch 200b or Multiclamp 700b (Molecular Devices) amplifier controlled by pClamp Software (Molecular Devices). The current was recorded by applying a voltage step to −120 mV every 10 seconds. For each compound, 4-6 concentrations were applied for 3-8 minutes in a successive manner starting with the lowest concentration. At the end of the experiment, the cells were perfused with bath solution containing 2 mM Ba^2+ to isolate the contribution of hROMK current.
Data analysis: Raw current values (5 traces each for control, different compound concentration and Ba^2+ treatment groups) were exported from Clampfit into Microsoft Excel where the current remaining after application of Ba^2+ was subtracted from raw current to obtain hROMK specific current. These hROMK current values (average of 5 traces for each group) were then imported into a custom made template to generate a concentration response curve, which was subsequently fitted with a four parameter equation to calculate the IC50 value of the test compound.
The data in Table 4 is reported with two significant figures.

hROMK (human Kir1.1) = hROMK (human Kir1.1) (Homo sapiens (Human), UniProt P48048); assay: Thallium Flux Assay; settings: CHO T-Rex hROMK stable cell line, 10-point concentration response; read-out: hROMK Th+ Flux IC50
Procedure, shortened: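 CHO T-Rex cells, doxycycline-induced (0.5 μg/ml) one day before, FluxOR dye-loaded; compounds 30 min, then Tl+ stimulus (final 3 mM Tl2SO4, 0.15 mM K2SO4) with ouabain in chloride-free buffer. Fluorescence 488/525 nm for 90 s; IC50 from 10-point curve; DMSO 0.5 or 1%.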

hERG = hERG (Homo sapiens (Human), UniProt Q12809); assay: hERG Manual Patch Clamp Assay; settings: human, HEK 293 cells stably expressing hERG channels; for inhibition at 1 µM: pH 7.4, 1 μM, read-out: hERG EP IC50 (% Inhibition at 1 μM); for inhibition at 3 µM: pH 7.4, 3 uM, read-out: hERG EP % Inhibition at 3 uM; for inhibition at 10 µM: pH 7.4, 10 uM, read-out: hERG EP % Inhibition at 10 uM
Description: hERG Manual Patch Clamp Assay
hERG electrophysiology assay: The experimental compounds were assessed for hERG activity on HEK 293 cells stably expressing hERG channels using patch clamp technique. Coverslips plated with hERG expressing cells were placed in the experimental chamber and were perfused with a solution composed of (in mM): 140 NaCl, 4 KCl, 1.8 CaCl2, 1 MgCl2, 10 Glucose, 10 HEPES (pH 7.4, NaOH) at room temperature. Borosilicate patch pipettes had tip resistances of 2-4 Mohms when filled with an internal solution containing: 130 KCl, 1 MgCl2, 1 CaCl2, 10 EGTA, 10 HEPES, 5 ATP-K2 (pH 7.2, KOH). The cells were clamped at −80 mV in whole cell configuration using an Axopatch 200B (Axon instruments, Union City, Calif.) patch clamp amplifier controlled by pClamp (Axon instruments) software. Upon formation of a gigaseal, the following voltage protocol was repeatedly (0.05 Hz) applied to record tail currents: depolarization step from −80 mV to +20 mV for 2 seconds followed by a hyperpolarization step to −65 mV (3 seconds) to elicit tail currents. Compounds were applied after stabilization of tail current. First, tail currents were recorded in presence of extracellular solution alone (control) and subsequently, in extracellular solution containing increasing compound concentrations. Each compound concentration was applied for 2-5 minutes. The percentage inhibition at each concentration was calculated as reduction in peak tail current with respect to the peak tail current recorded in the presence of control solution. Data analysis was performed in a custom made template. The percent inhibitions at different concentrations were plotted to obtain a concentration response curve, which was subsequently fitted with a four parameter equation to calculate hERG IC50 value.
A lower hERG % Inhibition value indicates less inhibition of the hERG current

hERG, sequence (Q12809 whole entry): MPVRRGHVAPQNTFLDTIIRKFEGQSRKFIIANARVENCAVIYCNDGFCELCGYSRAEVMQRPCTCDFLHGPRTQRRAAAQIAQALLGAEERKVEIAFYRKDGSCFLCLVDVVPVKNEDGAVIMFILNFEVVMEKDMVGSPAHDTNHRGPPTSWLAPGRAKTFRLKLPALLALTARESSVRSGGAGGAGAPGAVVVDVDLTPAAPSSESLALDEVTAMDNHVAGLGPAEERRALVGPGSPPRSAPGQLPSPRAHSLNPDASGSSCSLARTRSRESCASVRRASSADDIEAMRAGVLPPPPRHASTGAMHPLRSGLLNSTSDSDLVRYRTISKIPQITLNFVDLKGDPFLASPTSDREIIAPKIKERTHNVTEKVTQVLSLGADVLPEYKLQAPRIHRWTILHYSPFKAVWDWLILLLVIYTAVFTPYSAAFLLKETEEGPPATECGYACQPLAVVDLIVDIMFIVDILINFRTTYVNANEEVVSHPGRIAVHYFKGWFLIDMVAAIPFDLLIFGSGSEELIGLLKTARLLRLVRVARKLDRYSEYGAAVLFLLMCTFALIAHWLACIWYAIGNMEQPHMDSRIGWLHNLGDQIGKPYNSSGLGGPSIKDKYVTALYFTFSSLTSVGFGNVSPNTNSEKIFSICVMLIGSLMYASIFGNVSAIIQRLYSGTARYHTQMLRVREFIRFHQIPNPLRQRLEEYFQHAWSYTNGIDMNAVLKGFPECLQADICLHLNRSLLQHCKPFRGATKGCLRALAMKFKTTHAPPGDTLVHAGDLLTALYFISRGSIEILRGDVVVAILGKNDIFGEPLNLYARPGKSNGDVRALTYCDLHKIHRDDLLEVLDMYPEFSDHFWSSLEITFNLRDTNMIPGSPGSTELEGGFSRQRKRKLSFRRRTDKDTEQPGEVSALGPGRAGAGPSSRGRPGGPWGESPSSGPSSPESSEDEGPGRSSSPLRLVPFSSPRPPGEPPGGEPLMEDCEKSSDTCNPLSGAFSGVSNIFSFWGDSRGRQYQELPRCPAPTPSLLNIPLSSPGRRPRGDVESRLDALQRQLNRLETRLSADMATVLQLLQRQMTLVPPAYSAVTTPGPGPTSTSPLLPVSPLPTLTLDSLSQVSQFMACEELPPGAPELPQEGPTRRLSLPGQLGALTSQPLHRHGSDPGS
hROMK, sequence (P48048 whole entry): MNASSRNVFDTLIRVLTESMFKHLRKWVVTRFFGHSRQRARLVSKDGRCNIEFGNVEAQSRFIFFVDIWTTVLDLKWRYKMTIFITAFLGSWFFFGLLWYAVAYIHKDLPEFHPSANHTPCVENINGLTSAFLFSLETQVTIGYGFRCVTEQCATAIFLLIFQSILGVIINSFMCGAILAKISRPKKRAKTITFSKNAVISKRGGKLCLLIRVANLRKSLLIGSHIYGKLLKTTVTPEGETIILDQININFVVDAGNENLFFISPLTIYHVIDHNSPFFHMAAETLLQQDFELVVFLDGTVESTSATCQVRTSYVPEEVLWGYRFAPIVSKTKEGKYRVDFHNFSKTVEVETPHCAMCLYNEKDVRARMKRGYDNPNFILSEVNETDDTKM
hROMK (human Kir1.1), sequence (P48048 whole entry): as above

| SMILES | pIC50 (hROMK) | pIC50 (hROMK (human Kir1.1)) | inhibition at 1 µM (hERG) [%] | inhibition at 3 µM (hERG) [%] | inhibition at 10 µM (hERG) [%] |
| --- | --- | --- | --- | --- | --- |
| Cc1c(C(O)CN2CCc3nc(-n4cnc5ncccc54)ncc3C2)ccc2c1COC2=O (single isomer, unassigned) [Example 53-I, 5-(2-(2-(1H-imidazo[4,5-b]pyridin-1-yl)-7,8-dihydropyrido[4,3-d]pyrimidin-6(5H)-yl)-1-hydroxyethyl)-4-methylisobenzofuran-1(3H)-one] | 7.06 | 6.87 | 13 | 34 | – |
| Cc1c(C(O)CN2CCc3nc(-n4cc(C#N)c5ncccc54)ncc3C2)ccc2c1COC2=O (single isomer, unassigned) [Example 68-I, 1-(6-(2-hydroxy-2-(4-methyl-1-oxo-1,3-dihydroisobenzofuran-5-yl)ethyl)-5,6,7,8-tetrahydropyrido[4,3-d]pyrimidin-2-yl)-1H-pyrrolo[3,2-b]pyridine-3-carbonitrile] | 7.64 | 7.54 | 22 | 54 | 86 |
| N#Cc1ccc(Nc2ccc3c(c2)CCN(Cc2ccc4c(c2)COC4=O)C3)cc1F [Example 4, 2-fluoro-4-((2-((1-oxo-1,3-dihydroisobenzofuran-5-yl)methyl)-1,2,3,4-tetrahydroisoquinolin-6-yl)amino)benzonitrile] | 7.51 | 7.54 | 94 | – | – |

Now those with a higher pIC50 (hROMK), led by results:

| pIC50 (hROMK) | pIC50 (hROMK (human Kir1.1)) | SMILES | inhibition at 1 µM (hERG) [%] | inhibition at 3 µM (hERG) [%] | inhibition at 10 µM (hERG) [%] |
| --- | --- | --- | --- | --- | --- |
| 7.92 | 7.36 | Cc1c(C(O)CN2CCc3nc(-n4cc(C#N)cn4)ncc3C2)ccc2c1COC2=O (single isomer, unassigned) [Example 56-I, 1-(6-(2-hydroxy-2-(4-methyl-1-oxo-1,3-dihydroisobenzofuran-5-yl)ethyl)-5,6,7,8-tetrahydropyrido[4,3-d]pyrimidin-2-yl)-1H-pyrazole-4-carbonitrile] | 35 | 65 | 82 |
| 7.89 | 7.21 | Cc1cn(-c2ncc3c(n2)CCN(CC(O)c2ccc4c(c2C)COC4=O)C3)cn1 (single isomer, unassigned) [Example 58-I, 5-(1-hydroxy-2-(2-(4-methyl-1H-imidazol-1-yl)-7,8-dihydropyrido[4,3-d]pyrimidin-6(5H)-yl)ethyl)-4-methyl isobenzofuran-1(3H)-one] | 9 | 20 | 42 |
